# Data: ChEMBL document CHEMBL3813683, “Design, synthesis and anti-cancer activity evaluation of podophyllotoxin-norcantharidin hybrid drugs” (Bioorg Med Chem Lett, 2016)
# What was measured:
# [1] = Cytotoxicity against HEK293T cells after 36 hrs by MTT assay; format: cell-based; details: Homo sapiens, HEK-293T
# MCF7 [2] = assay: Cytotoxicity against human MCF7 cells after 36 hrs by MTT assay; format: functional, cell-based; details: MCF7, 36 h
# HeLa = assay: Cytotoxicity against human HeLa cells after 36 hrs by MTT assay; format: functional, cell-based
# A549 = assay: Cytotoxicity against human A549 cells after 36 hrs by MTT assay; format: functional, cell-based; details: A549, 36 h
# MCF7 [3] = assay: Cell cycle arrest in human MCF7 cells assessed as accumulation at G0/G1 phase at 2 uM after 24 hrs by propidium iodide staining-based flow cytometry (reference value: 64.68 to 80.32%); format: functional
# MCF7 [4] = assay: Induction of apoptosis in human MCF7 cells assessed as viable cells at 4 uM after 24 hrs by Annexin V-FITC/propidium iodide staining-based flow cytometry (reference value: 80 to 91.6%); format: functional; details: MCF7, 24 h, read-out: Activity
# MCF7 [5] = assay: Induction of apoptosis in human MCF7 cells assessed as early apoptotic cells at 1 uM after 24 hrs by Annexin V-FITC/propidium iodide staining-based flow cytometry (reference value: 2.45 to 6.92%); format: functional
# MCF7 [6] = assay: Cell cycle arrest in human MCF7 cells assessed as accumulation at S phase at 8 uM after 24 hrs by propidium iodide staining-based flow cytometry (reference value: 15.95 to 25.74%); format: functional
# MCF7 [7] = assay: Induction of apoptosis in human MCF7 cells assessed as late apoptotic cells at 1 uM after 24 hrs by Annexin V-FITC/propidium iodide staining-based flow cytometry (reference value: 5.92 to 9.33%); format: functional
# MCF7 [8] = assay: Cell cycle arrest in human MCF7 cells assessed as accumulation at G2/M phase at 4 uM after 24 hrs by propidium iodide staining-based flow cytometry (reference value: 3.73 to 10.75%); format: functional
# MCF7 [9] = assay: Induction of apoptosis in human MCF7 cells assessed as viable cells at 8 uM after 24 hrs by Annexin V-FITC/propidium iodide staining-based flow cytometry (reference value: 80 to 91.6%); format: functional; details: MCF7, 24 h, read-out: Activity
# MCF7 [10] = assay: Cell cycle arrest in human MCF7 cells assessed as accumulation at G0/G1 phase at 8 uM after 24 hrs by propidium iodide staining-based flow cytometry (reference value: 64.68 to 80.32%); format: functional
# MCF7 [11] = assay: Induction of apoptosis in human MCF7 cells assessed as viable cells at 2 uM after 24 hrs by Annexin V-FITC/propidium iodide staining-based flow cytometry (reference value: 80 to 91.6%); format: functional; details: MCF7, 24 h, read-out: Activity
# MCF7 [12] = assay: Induction of apoptosis in human MCF7 cells assessed as late apoptotic cells at 8 uM after 24 hrs by Annexin V-FITC/propidium iodide staining-based flow cytometry (reference value: 5.92 to 9.33%); format: functional
# MCF7 [13] = assay: Induction of apoptosis in human MCF7 cells assessed as necrotic cells at 4 uM after 24 hrs by Annexin V-FITC/propidium iodide staining-based flow cytometry (reference value: 0.021 to 3.8%); format: functional
# MCF7 [14] = assay: Induction of apoptosis in human MCF7 cells assessed as late apoptotic cells at 4 uM after 24 hrs by Annexin V-FITC/propidium iodide staining-based flow cytometry (reference value: 5.92 to 9.33%); format: functional
# MCF7 [15] = assay: Induction of apoptosis in human MCF7 cells assessed as necrotic cells at 1 uM after 24 hrs by Annexin V-FITC/propidium iodide staining-based flow cytometry (reference value: 0.021 to 3.8%); format: functional
# MCF7 [16] = assay: Induction of apoptosis in human MCF7 cells assessed as early apoptotic cells at 4 uM after 24 hrs by Annexin V-FITC/propidium iodide staining-based flow cytometry (reference value: 2.45 to 6.92%); format: functional
# MCF7 [17] = assay: Induction of apoptosis in human MCF7 cells assessed as early apoptotic cells at 8 uM after 24 hrs by Annexin V-FITC/propidium iodide staining-based flow cytometry (reference value: 2.45 to 6.92%); format: functional
# MCF7 [18] = assay: Induction of apoptosis in human MCF7 cells assessed as necrotic cells at 8 uM after 24 hrs by Annexin V-FITC/propidium iodide staining-based flow cytometry (reference value: 0.021 to 3.8%); format: functional
# MCF7 [19] = assay: Cell cycle arrest in human MCF7 cells assessed as accumulation at S phase at 4 uM after 24 hrs by propidium iodide staining-based flow cytometry (reference value: 15.95 to 25.74%); format: functional
# MCF7 [20] = assay: Cell cycle arrest in human MCF7 cells assessed as accumulation at S phase at 2 uM after 24 hrs by propidium iodide staining-based flow cytometry (reference value: 15.95 to 25.74%); format: functional
# MCF7 [21] = assay: Induction of apoptosis in human MCF7 cells assessed as viable cells at 1 uM after 24 hrs by Annexin V-FITC/propidium iodide staining-based flow cytometry (reference value: 80 to 91.6%); format: functional; details: MCF7, 24 h, read-out: Activity
# MCF7 [22] = assay: Cell cycle arrest in human MCF7 cells assessed as accumulation at G2/M phase at 8 uM after 24 hrs by propidium iodide staining-based flow cytometry (reference value: 3.73 to 10.75%); format: functional
# MCF7 [23] = assay: Induction of apoptosis in human MCF7 cells assessed as necrotic cells at 2 uM after 24 hrs by Annexin V-FITC/propidium iodide staining-based flow cytometry (reference value: 0.021 to 3.8%); format: functional
# MCF7 [24] = assay: Induction of apoptosis in human MCF7 cells assessed as early apoptotic cells at 2 uM after 24 hrs by Annexin V-FITC/propidium iodide staining-based flow cytometry (reference value: 2.45 to 6.92%); format: functional
# MCF7 [25] = assay: Induction of apoptosis in human MCF7 cells assessed as late apoptotic cells at 2 uM after 24 hrs by Annexin V-FITC/propidium iodide staining-based flow cytometry (reference value: 5.92 to 9.33%); format: functional
# MCF7 [26] = assay: Cell cycle arrest in human MCF7 cells assessed as accumulation at G2/M phase at 2 uM after 24 hrs by propidium iodide staining-based flow cytometry (reference value: 3.73 to 10.75%); format: functional
# MCF7 [27] = assay: Cell cycle arrest in human MCF7 cells assessed as accumulation at G0/G1 phase at 4 uM after 24 hrs by propidium iodide staining-based flow cytometry (reference value: 64.68 to 80.32%); format: functional
smiles,measurement,setting,value
COc1cc(C2c3cc4c(cc3[C@H](OC(=O)[C@H](Cc3ccccc3)N3C(=O)c5ccccc5C3=O)[C@H]3COC(=O)[C@H]23)OCO4)cc(OC)c1OC (stereo not given in full),IC50,[1],54.8 µM
same,IC50,MCF7 [2],10.1 µM
same,IC50,HeLa,12.5 µM
same,IC50,A549,8.11 µM
COc1cc(C2c3cc4c(cc3[C@H](OC(=O)[C@@H](C)N3C(=O)c5ccccc5C3=O)[C@H]3COC(=O)[C@H]23)OCO4)cc(OC)c1OC (stereo not given in full),IC50,[1],59.3 µM
same,IC50,MCF7 [2],8.29 µM
same,IC50,HeLa,11.8 µM
same,IC50,A549,8.08 µM
COc1cc(C2c3cc4c(cc3[C@H](OC(=O)[C@H](Cc3ccccc3)N3C(=O)C5CCCCC5C3=O)[C@H]3COC(=O)[C@H]23)OCO4)cc(OC)c1OC (stereo not given in full),IC50,[1],42.6 µM
same,IC50,MCF7 [2],8.24 µM
same,IC50,HeLa,8.28 µM
same,IC50,A549,4.92 µM
COc1cc(C2c3cc4c(cc3[C@H](OC(=O)C(C)N3C(=O)c5ccccc5C3=O)[C@H]3COC(=O)[C@H]23)OCO4)cc(OC)c1OC (stereo not given in full),IC50,[1],51.3 µM
same,IC50,MCF7 [2],16.8 µM
same,IC50,HeLa,17.2 µM
same,IC50,A549,5.37 µM
COc1cc(C2c3cc4c(cc3[C@H](OC(=O)[C@@H](C)N3C(=O)C5C6CCC(O6)C5C3=O)[C@H]3COC(=O)[C@H]23)OCO4)cc(OC)c1OC (stereo not given in full),IC50,[1],80.8 µM
same,IC50,MCF7 [2],1.17 µM
same,IC50,HeLa,1.14 µM
same,IC50,A549,2 µM
COc1cc([C@@H]2c3cc4c(cc3[C@@H](O[C@@H]3O[C@@H]5CO[C@@H](C)O[C@H]5[C@H](O)[C@H]3O)[C@H]3COC(=O)[C@H]23)OCO4)cc(OC)c1O [ETOPOSIDE],IC50,[1],11.5 µM
same,IC50,MCF7 [2],1.74 µM
same,IC50,HeLa,4.39 µM
same,IC50,A549,8.01 µM
COc1cc(C2c3cc4c(cc3[C@H](OC(=O)[C@H](C)N3C(=O)c5ccccc5C3=O)[C@H]3COC(=O)[C@H]23)OCO4)cc(OC)c1OC (stereo not given in full),IC50,[1],88.6 µM
same,IC50,MCF7 [2],18.3 µM
same,IC50,HeLa,19 µM
same,IC50,A549,5.89 µM
COc1cc([C@@H]2c3cc4c(cc3[C@H](O)[C@H]3COC(=O)[C@H]23)OCO4)cc(OC)c1OC [PODOFILOX],Activity,MCF7 [3],34.48%
same,viability at 4 µM,MCF7 [4],93.1%
same,Activity,MCF7 [5],2.33%
same,Activity,MCF7 [6],57.7%
same,Activity,MCF7 [7],4.34%
same,Activity,MCF7 [8],12.77%
same,IC50,[1],1.54 µM
same,IC50,MCF7 [2],1.11 µM
same,viability at 8 µM,MCF7 [9],91.8%
same,Activity,MCF7 [10],27.1%
same,viability at 2 µM,MCF7 [11],90.8%
same,Activity,MCF7 [12],4.97%
same,Activity,MCF7 [13],0.032%
same,Activity,MCF7 [14],3.57%
same,Activity,MCF7 [15],0.037%
same,Activity,MCF7 [16],3.35%
same,Activity,MCF7 [17],3.24%
same,Activity,MCF7 [18],0.042%
same,Activity,MCF7 [19],19.36%
same,Activity,MCF7 [20],53.55%
same,viability at 1 µM,MCF7 [21],93.3%
same,Activity,MCF7 [22],15.2%
same,IC50,HeLa,1.45 µM
same,Activity,MCF7 [23],0.021%
same,Activity,MCF7 [24],2.95%
same,IC50,A549,1.36 µM
same,Activity,MCF7 [25],6.26%
same,Activity,MCF7 [26],11.97%
same,Activity,MCF7 [27],67.87%
COc1cc(C2c3cc4c(cc3[C@H](OC(=O)[C@@H](C)N3C(=O)C5CCCCC5C3=O)[C@H]3COC(=O)[C@H]23)OCO4)cc(OC)c1OC (stereo not given in full),IC50,[1],54.5 µM
same,IC50,MCF7 [2],2.51 µM
same,IC50,HeLa,2.15 µM
same,IC50,A549,2.11 µM
COc1cc(C2c3cc4c(cc3[C@H](OC(=O)[C@@H](Cc3ccccc3)N3C(=O)c5ccccc5C3=O)[C@H]3COC(=O)[C@H]23)OCO4)cc(OC)c1OC (stereo not given in full),IC50,[1],50.9 µM
same,IC50,MCF7 [2],25.5 µM
same,IC50,HeLa,18.7 µM
same,IC50,A549,7.28 µM
